For test [1], the target named is Cyclin-dependent kinase 4 (Homo sapiens) (UniProt P11802). Description: Inhibition of CDK4 downstream signalling in human MDA-MB-231 cells assessed as decrease in p-retinoblastoma protein level measured after 72 hrs by Western blot analysis. In kind it is cell-based. The note with it: dose 1.25-20 µM, DDE = dose-dependent effect. On the technique in general: Immunoblotting shows a protein as a band on a membrane.

The next test deals with CDK4/Cyclin D3 (Homo sapiens, UniProt P11802). The test can be described thus: Inhibition of recombinant N-terminal GST/His6-fusion tagged human CDK4/Cyclin D3 expressed in Sf9 insect cells using 5-FAM-IPTSPITTTYFFFKKK as substrate preincubated for 10 mins followed by substrate addition and incubated for 3 hrs in presence of ATP by caliper mobility shift analysis.
In the next test the test system is EMT6. The test can be described thus: Antitumor activity against mouse EMT6 cells implanted in BALB/c mouse syngenic model assessed as increase in infiltration of CD8 positive T cells into tumors at 20 mg/kg, po bid measured after 18 days by immunohistochemical analysis. The following applies: time 18.0 day. It is filed as functional, organism-based.

The structures appear in SMILES notation. pIC50: −log10 of the molar value. The source made the active and inactive calls. The rule behind the calls is not given here.

As usually defined, the pIC50 is −log10 of the IC50, conventionally taken in molar units.

Chain of CDK4/Cyclin D3 (P11802 whole entry, the tested form may be a part): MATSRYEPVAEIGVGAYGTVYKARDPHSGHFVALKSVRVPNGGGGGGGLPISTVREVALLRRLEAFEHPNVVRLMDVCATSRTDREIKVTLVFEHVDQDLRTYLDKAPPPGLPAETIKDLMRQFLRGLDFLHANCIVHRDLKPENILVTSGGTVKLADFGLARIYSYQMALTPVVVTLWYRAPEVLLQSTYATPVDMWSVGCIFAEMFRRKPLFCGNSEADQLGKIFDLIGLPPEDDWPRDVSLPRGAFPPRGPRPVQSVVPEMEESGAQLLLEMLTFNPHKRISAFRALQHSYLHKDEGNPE
Chain of CDK4/Cyclin D3 (P30281 whole entry, further chain, the tested form may be a part): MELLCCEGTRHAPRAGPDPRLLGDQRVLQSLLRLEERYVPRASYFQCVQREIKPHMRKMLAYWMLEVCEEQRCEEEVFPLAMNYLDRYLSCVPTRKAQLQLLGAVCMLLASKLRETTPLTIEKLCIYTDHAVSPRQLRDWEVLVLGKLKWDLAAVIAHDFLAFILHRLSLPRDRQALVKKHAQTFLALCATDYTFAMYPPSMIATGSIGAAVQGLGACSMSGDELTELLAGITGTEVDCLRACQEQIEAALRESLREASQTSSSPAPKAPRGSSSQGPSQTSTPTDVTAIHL
Chain of Cyclin-dependent kinase 4 (Homo sapiens) (P11802 whole entry): as the sequence (P11802 whole entry, the tested form may be a part) above

`Cc1nc2c(F)cc(-c3nc(Nc4nccc(Sc5cnc(N6CCC7(CC6)CO[C@@H](C)[C@H]7N)cn5)c4Cl)ncc3F)cc2n1C(C)C`: the inhibition result in test [1] was “Dde”. The pIC50 on CDK4/Cyclin D3 is 7.74. For the same molecule, in the test on EMT6, the outcome was Active.

The values are drawn from ChEMBL document CHEMBL5154884, “Discovery of a Novel Src Homology-2 Domain Containing Protein Tyrosine Phosphatase-2 (SHP2) and Cyclin-Dependent Kinase 4 (CDK4) Dual Inhibitor for the Treatment of Triple-Negative Breast Cancer” (J Med Chem, 2022).
